In assay [1] the target is T1, Voltage-gated N-type calcium channel alpha-1B subunit/Amyloid beta A4 precursor protein-binding family A member 1 (Homo sapiens, UniProt Q00975+Q02410). It is filed as protein assay.
The target in the next assay is Large T antigen (Simian virus 40, UniProt P03070). It is filed as functional, Betapolyomavirus macacae.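 Also: Confirmatory-stage PubChem screen for compounds that inhibit SV40 T antigen.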
Assay [2] concerns the target T1, Voltage-gated N-type calcium channel alpha-1B subunit/Amyloid beta A4 precursor protein-binding family A member 1. It is filed as protein assay. This is another data set of the same source.
Assay [3] can be described thus: growth suppression of PTEN-null colon cells, dose response, cell-based, HCT116 PTEN knockout (AID 1047).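 Also: HCT116 colon tumor cells with PTEN knocked out; cells exposed to compound for 60 hours before readout; potency for loss of cell viability measured by luminescence.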 It is filed as functional.
Assay [4] is described as follows: growth suppression of beta-catenin-knockout colon cells, dose response, cell-based, HCT116, human colon tumor (AID 1045).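 Also: HCT116 colon tumor cells with beta catenin knocked out; cells exposed to compound for 60 hours.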 The format is functional.
In assay [5] the target is Glucose-6-phosphate 1-dehydrogenase (Homo sapiens, UniProt P11413). Briefly: human G6PD enzyme inhibitors, dose response, selectivity assay for P. falciparum G6PD inhibitor project, biochemical, fluorescence (AID 504792). The format is functional.
In assay [6] the target is DNA dC->dU-editing enzyme APOBEC-3G (Homo sapiens, UniProt Q9HC16). Kind of assay: Dose Response confirmation of small molecule APOBEC3G DNA Deaminase Inhibitors via a fluorescence-based single-stranded DNA deaminase assay. [Related pubchem assays (depositor defined):AID493012, AID493028]. The format is functional.
In assay [7] the target is Potassium voltage-gated channel subfamily KQT member 2 (Rattus norvegicus, UniProt O88943). Briefly: retigabine-insensitive KCNQ2 potentiators, concentration-response, dose response, cell-based, retigabine-insensitive compounds (AID 2654). It is filed as functional.
Assay [8] in a line: Counterscreen for IDE inhibitors: Luminescence-based cell-based high throughput dose response assay to identify compounds that are cytotoxic to HEK cells. [Related pubchem assays: 434962 (Primary screen (IDE inhibitors in singlicate)), 449730 (Counterscreen (Cytotoxicity in triplicate)), 435028 (Confirmation (IDE inhibitors in triplicate)) …. It is filed as functional. As to conditions: HEK293.

The next assay deals with T2, Insulin-degrading enzyme (Homo sapiens, UniProt P14735).
T2 sequence (P14735 whole entry): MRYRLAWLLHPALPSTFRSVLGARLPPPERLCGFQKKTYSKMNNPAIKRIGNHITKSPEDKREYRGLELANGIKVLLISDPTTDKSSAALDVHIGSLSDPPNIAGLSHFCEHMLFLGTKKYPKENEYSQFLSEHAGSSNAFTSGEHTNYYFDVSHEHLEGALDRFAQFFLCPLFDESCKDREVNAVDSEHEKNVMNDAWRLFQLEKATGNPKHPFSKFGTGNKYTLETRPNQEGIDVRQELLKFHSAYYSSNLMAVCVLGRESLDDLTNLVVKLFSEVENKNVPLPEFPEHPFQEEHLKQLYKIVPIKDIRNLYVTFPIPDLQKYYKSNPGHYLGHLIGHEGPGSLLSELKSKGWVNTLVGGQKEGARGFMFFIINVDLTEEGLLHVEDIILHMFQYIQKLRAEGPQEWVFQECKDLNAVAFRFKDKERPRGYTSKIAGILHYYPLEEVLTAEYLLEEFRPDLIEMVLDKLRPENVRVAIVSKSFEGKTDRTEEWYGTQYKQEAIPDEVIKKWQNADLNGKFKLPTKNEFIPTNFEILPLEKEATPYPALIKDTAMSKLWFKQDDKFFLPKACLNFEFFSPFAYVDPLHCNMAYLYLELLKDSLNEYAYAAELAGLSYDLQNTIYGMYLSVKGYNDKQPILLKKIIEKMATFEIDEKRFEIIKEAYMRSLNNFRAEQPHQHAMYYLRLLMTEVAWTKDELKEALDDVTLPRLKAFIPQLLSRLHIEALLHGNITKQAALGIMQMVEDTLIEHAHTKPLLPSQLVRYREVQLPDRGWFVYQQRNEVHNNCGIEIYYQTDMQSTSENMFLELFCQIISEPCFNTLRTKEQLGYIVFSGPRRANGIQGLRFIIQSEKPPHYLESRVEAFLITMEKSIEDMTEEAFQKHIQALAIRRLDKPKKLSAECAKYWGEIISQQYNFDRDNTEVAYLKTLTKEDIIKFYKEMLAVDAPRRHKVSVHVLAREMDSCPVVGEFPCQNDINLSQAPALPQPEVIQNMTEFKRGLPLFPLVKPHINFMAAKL
Briefly: Dose Response: Fluorescence polarization-based cell-based high throughput dose response assay for inhibitors of insulin-degrading enzyme (IDE). [Related pubchem assays: 434962 (Primary screen (IDE inhibitors in singlicate)), 449730 (Counterscreen (Cytotoxicity in triplicate)), 435028 (Confirmation (IDE inhibitors in triplicate)), 434984 (Summary …. It is filed as functional. Background: Polarisation of emitted light reports the rotation of a fluorescent probe.

The nature of assay [9]: enhancers of respiration in Yfh1-depleted yeast, dose response, Friedreich's ataxia, plus single-dose screen (AID 1465).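 Also: yeast depleted of Yfh1p frataxin homolog grown on glycerol needing respiration; WST-1 tetrazolium dye reduction as measure of cellular dehydrogenase metabolic activity.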 The format is functional.
In another assay the test system is HEK293. Briefly: Fluorescence-based counterscreen for potentiators or agonists of NPY-Y2: cell-based high-throughput dose response assay to identify inhibitors of cyclic nucleotide gated ion channel (CNGC) activity. In this assay, the parental HEK293 cell line transfected with a cyclic-nucleotide gated ion channel (CNGC)-based cAMP sensor is used to measure inhibition of isoproterenol-induced CNGC activity by test compound. It is filed as functional. As to conditions: Homo sapiens.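 Also: stimulus is 1 µM isoproterenol at EC100 plus PDE inhibitor Ro 20-1724 at 25 µM.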

The target of assay [10] is T3, Neuropeptide Y receptor type 2 (Homo sapiens, UniProt P49146).
T3 sequence (P49146 whole entry): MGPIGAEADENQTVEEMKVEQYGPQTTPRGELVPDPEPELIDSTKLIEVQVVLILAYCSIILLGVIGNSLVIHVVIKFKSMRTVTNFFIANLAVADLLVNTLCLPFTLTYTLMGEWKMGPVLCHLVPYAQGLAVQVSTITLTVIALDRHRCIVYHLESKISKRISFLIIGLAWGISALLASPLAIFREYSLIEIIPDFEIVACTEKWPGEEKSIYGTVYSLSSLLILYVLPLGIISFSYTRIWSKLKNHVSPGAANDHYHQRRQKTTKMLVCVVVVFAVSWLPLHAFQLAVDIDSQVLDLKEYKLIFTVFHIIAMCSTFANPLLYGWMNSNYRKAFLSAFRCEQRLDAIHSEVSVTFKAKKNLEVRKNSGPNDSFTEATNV
Briefly: Fluorescence-based cell-based high-throughput dose response assay for agonists of NPY-Y2. [Related pubchem assays: 1703 (Screening assay (CNGC inhibitors).), 1359 (Screening assay (NPY-Y2 potentiators or agonists).), 1304 (Screening assay (NPY-Y1 potentiators or agonists).), 1710 (Screening assay (NPY-Y2 agonists).), 1791 (Summary AID.)]. It is filed as functional.

The target in assay [11] is T4, Neuropeptide Y receptor type 1 (Homo sapiens, UniProt P25929).
T4 sequence (P25929 whole entry): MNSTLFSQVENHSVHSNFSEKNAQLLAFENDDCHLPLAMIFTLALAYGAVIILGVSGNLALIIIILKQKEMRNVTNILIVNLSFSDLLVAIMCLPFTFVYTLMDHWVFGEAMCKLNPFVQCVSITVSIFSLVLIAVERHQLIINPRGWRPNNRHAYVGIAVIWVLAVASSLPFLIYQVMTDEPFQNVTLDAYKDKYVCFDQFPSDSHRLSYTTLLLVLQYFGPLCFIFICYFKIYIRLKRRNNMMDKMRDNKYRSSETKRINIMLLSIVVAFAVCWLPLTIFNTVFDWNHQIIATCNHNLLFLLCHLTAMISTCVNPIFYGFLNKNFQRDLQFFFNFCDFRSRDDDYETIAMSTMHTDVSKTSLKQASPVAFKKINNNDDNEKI
Briefly: Fluorescence-based counterscreen for agonists of NPY-Y2: cell-based high-throughput dose response assay for agonists of NPY-Y1. The format is functional.

Assay [12] has as its target T5, Mannose-6-phosphate isomerase (Homo sapiens, UniProt P34949).
T5 sequence (P34949 whole entry): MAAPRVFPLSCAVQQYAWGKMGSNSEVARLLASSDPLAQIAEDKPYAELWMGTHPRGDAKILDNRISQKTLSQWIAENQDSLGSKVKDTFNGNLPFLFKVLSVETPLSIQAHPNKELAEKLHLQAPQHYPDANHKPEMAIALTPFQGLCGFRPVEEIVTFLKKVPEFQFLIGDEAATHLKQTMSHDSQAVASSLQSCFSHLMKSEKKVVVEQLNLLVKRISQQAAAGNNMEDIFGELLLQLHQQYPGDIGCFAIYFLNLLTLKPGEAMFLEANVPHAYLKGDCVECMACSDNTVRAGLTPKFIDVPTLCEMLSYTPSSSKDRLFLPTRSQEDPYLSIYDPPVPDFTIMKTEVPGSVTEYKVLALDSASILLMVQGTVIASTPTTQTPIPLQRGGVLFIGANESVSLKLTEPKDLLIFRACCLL
Kind of assay: PMI enzyme inhibitors, confirmation, biochemical, fluorescence intensity (AID 1535).

A further assay concerns the target Phosphomannomutase 2 (Homo sapiens, UniProt O15305). Kind of assay: Counter screen SAR assay for PMM2 inhibitors via a fluorescence intensity assay. [Related pubchem assays (depositor defined):AID1545, AID1574].
For assay [13], the target named is Phosphoethanolamine/phosphocholine phosphatase (Homo sapiens, UniProt Q8TCT1). Briefly: SAR assay for compounds that inhibit PHOSPHO1. [Related pubchem assays (depositor defined):AID1545, AID1565, AID1574].
Assay [14] is described as follows: Luminescence Cell-Based Dose Retest to Confirm Inhibitors of Cancer Stem Cells. [Related pubchem assays (depositor defined):AID2717, AID2721]. It is filed as functional. The note with it: Homo sapiens.
Assay [15] has as its target C-C chemokine receptor type 6 (Homo sapiens, UniProt P51684). Briefly: CCR6 receptor antagonists, dose response, cell-based, luminescent beta-arrestin readout (AID 504728). It is filed as functional.
The target in a further assay is Beta-galactosidase (Escherichia coli, UniProt Q8VNN2). Briefly: beta-galactosidase enzyme inhibitors and activators, dose response, artefact control for CCR6 antagonist project, biochemical, E. coli enzyme, set 3 (AID 504712). The format is functional.

Active and inactive are the calls of the source.
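For AC50 in this document: cells exposed to compound for roughly 70 hours or longer before luminescence read.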

T1 sequence (Q00975 whole entry): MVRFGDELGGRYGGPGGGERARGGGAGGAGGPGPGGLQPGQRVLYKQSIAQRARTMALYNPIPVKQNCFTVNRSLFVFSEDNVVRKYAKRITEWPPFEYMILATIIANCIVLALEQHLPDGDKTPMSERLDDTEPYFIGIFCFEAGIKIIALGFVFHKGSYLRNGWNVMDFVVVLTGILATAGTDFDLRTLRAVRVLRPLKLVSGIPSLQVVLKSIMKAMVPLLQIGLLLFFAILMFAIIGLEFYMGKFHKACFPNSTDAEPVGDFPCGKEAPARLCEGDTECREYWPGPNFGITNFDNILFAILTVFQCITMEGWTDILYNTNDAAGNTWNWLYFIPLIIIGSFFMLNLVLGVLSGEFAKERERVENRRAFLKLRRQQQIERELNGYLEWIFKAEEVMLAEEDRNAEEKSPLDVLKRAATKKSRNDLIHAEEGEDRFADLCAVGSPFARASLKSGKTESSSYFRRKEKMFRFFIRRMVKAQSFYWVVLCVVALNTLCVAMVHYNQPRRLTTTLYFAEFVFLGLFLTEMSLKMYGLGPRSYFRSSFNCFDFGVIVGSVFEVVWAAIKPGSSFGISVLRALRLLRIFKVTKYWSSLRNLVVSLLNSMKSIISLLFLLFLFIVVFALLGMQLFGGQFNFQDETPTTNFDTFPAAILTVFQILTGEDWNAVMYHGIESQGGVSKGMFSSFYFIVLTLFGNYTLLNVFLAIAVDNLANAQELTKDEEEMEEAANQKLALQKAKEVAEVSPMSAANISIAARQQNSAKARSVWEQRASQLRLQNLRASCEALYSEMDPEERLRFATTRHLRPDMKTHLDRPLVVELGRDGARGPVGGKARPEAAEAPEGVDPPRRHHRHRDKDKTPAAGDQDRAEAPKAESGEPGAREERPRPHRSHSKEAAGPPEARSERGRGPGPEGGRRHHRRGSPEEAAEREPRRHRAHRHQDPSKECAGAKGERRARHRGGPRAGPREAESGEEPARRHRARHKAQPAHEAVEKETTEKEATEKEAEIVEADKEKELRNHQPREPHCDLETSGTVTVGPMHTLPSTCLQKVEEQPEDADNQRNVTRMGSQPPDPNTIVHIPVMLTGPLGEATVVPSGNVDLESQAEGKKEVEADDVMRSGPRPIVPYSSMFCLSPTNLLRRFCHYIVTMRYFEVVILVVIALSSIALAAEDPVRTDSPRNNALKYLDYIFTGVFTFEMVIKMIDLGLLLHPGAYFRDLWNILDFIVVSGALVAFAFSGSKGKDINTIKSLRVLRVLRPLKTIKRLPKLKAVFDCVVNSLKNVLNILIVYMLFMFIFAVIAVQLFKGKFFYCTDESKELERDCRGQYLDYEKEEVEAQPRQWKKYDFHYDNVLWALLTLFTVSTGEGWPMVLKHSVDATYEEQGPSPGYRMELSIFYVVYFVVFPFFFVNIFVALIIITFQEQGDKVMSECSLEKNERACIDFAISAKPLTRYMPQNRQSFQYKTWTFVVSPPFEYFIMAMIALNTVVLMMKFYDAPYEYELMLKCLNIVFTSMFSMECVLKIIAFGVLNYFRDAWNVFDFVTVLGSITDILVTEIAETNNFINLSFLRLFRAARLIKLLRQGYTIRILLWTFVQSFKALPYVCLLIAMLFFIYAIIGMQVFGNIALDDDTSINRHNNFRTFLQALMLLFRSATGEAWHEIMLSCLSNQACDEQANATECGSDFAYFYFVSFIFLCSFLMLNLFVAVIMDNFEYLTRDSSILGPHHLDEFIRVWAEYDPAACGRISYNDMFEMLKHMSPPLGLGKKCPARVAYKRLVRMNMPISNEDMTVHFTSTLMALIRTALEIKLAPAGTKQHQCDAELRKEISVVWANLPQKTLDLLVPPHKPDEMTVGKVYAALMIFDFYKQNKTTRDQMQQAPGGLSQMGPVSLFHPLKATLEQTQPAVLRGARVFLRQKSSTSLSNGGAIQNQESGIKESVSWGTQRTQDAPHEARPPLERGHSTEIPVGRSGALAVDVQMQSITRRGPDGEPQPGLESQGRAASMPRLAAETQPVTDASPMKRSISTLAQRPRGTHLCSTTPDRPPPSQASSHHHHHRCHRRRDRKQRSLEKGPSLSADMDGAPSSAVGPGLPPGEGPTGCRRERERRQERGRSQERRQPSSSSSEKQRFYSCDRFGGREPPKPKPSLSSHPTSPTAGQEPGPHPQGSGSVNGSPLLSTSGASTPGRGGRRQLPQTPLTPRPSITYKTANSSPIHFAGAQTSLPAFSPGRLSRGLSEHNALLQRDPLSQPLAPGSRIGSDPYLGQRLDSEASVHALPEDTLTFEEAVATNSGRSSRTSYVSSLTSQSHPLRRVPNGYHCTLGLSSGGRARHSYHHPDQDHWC
T1 sequence (Q02410 whole entry): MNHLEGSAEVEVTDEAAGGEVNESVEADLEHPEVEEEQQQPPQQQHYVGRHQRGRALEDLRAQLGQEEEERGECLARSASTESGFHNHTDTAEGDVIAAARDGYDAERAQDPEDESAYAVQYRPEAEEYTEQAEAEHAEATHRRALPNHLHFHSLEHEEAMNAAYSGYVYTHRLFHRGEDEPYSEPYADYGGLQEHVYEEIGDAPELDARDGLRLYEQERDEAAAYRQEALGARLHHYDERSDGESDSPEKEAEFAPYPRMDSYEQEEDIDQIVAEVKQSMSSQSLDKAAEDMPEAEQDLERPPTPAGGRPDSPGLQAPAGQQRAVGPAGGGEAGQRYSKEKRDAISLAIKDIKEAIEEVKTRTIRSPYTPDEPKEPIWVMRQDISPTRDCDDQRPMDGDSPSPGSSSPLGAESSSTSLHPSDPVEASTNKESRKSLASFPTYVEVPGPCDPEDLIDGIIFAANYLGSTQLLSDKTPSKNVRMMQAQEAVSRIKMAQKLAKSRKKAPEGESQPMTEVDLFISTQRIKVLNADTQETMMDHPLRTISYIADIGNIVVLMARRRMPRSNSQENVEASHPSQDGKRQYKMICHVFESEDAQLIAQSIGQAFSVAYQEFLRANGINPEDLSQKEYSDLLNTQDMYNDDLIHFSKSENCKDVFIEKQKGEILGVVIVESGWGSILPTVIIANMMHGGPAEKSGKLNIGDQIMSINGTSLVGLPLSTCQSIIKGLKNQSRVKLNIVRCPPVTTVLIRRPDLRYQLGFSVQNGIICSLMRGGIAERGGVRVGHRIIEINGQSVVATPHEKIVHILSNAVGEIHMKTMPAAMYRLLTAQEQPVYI
Large T antigen, sequence (P03070 whole entry): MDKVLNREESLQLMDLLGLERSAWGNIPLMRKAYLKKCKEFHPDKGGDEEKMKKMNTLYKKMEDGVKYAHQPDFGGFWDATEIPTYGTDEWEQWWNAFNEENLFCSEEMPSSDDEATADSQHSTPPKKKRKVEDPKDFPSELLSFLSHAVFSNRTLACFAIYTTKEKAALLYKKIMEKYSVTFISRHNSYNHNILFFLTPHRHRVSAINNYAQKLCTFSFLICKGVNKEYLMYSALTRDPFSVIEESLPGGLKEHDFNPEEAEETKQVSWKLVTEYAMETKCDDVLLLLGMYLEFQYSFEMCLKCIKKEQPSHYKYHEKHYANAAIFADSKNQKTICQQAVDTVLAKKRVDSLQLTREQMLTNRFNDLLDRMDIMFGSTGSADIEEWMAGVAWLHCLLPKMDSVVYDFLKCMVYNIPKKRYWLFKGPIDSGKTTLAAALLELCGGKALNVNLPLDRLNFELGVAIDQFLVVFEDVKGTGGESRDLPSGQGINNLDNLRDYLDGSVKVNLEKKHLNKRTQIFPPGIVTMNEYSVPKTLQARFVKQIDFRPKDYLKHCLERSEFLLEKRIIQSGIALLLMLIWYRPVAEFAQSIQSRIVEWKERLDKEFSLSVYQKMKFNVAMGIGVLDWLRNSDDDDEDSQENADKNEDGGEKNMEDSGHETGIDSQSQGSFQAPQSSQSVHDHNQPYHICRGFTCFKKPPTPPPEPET
Glucose-6-phosphate 1-dehydrogenase, sequence (P11413 whole entry): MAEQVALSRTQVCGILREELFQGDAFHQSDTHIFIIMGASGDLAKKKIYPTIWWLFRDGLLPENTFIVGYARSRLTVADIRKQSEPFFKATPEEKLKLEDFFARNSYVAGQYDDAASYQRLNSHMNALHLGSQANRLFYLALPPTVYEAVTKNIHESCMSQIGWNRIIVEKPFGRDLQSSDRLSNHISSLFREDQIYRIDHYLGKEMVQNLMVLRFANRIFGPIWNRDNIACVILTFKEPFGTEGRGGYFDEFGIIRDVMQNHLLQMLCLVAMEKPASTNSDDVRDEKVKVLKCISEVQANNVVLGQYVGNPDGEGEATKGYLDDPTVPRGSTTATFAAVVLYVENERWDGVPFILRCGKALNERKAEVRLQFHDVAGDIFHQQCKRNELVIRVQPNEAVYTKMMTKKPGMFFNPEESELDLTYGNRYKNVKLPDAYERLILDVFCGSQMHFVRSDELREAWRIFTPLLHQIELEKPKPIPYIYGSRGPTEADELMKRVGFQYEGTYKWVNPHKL
DNA dC->dU-editing enzyme APOBEC-3G, sequence (Q9HC16 whole entry): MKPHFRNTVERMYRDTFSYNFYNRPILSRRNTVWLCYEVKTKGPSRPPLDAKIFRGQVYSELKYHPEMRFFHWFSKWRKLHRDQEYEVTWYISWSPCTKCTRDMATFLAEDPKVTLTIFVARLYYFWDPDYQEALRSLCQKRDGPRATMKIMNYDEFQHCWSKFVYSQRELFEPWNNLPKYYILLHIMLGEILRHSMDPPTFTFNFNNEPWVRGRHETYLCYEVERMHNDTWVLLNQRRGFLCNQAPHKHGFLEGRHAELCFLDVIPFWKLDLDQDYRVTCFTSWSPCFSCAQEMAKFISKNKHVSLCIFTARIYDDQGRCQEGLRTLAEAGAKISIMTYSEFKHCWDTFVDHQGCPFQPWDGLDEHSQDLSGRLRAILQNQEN
Phosphomannomutase 2, sequence (O15305 whole entry): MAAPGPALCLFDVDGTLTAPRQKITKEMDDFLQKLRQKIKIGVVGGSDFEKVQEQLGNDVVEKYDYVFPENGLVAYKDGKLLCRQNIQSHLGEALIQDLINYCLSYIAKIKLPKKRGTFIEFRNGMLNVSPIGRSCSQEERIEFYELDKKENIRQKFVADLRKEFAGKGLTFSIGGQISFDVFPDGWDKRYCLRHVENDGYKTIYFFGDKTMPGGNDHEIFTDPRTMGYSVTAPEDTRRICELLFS

As to `Cc1cc(C)c2c(=O)n(CC(=O)N3CCC(N4CCCCC4)CC3)sc2n1`, the IC50 was 16.2 µM (active) in assay [1]; 28.1 µM (active) on Large T antigen; > 50 µM (inactive) in assay [2]; 37 µM (inactive) in [5]; 9.83 µM (active) in assay [6]. Further, the 50% effective concentration (EC50) is 22.6 µM (active) in assay [3] and 18.6 µM (active) in [4].
In the case of `Cc1cccc(NC(=O)Nc2cccnc2)c1C`, in [7], the EC50 is 16 µM (active).
Regarding `O=C1NC(=O)N(c2ccc3c(c2)OCO3)C(=O)/C1=C\c1ccc(N2CCCCC2)o1`, the IC50 in assay [8] is > 55.7 µM (not active); on Insulin-degrading enzyme, 21 µM (not active). In addition, the EC50 in assay [9] was > 100 µM (active).
For `O=C(/C=C/c1cn(-c2ccccc2)nc1-c1cccnc1)N1CCCC1`, the EC50 (in the assay on HEK293; in [10]; in assay [11]) was > 35.4 µM (not active) each time.
With `Cc1c(Cl)cccc1-n1sc2cc(F)ccc2c1=O`, the concentration for half-maximal inhibition (IC50) in assay [12] is 28.6 µM (active); on Phosphomannomutase 2, 8.74 µM (active); in [13], 1.53 µM (inactive).
With `C=C(CC[C@@H](O)C(C)(C)O)[C@H]1CC[C@]2(C)[C@@H]1CC[C@@H]1[C@@]3(C)CC[C@H](O)C(C)(C)C3CC[C@]12C` (stereo not given in full), the AC50 in assay [14] was 0.561 µM (active). Further, the IC50 (in assay [15]; at Beta-galactosidase) was > 66.6 µM (inactive) throughout.

As usually defined, the IC50 is the concentration at which inhibition is half-maximal. By EC50 is commonly meant the concentration needed to bring the measured effect to its halfway point. The AC50 is the midpoint of the concentration-response curve, whichever way the signal moves.

The values above are taken from ChEMBL document CHEMBL1201862, “PubChem BioAssay data set” (2004).
